Source: PubChem BioAssay (NCI)
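Cells were grown in 96-well plates and exposed to each compound for 48 hours at five concentrations; endpoints were interpolated linearly between bracketing concentrations, or set to the highest concentration if not reached. Definition used: TGI = concentration required for complete inhibition of growth.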

Tests used:
Assay in all cases: DTP human tumour cell line panel, 48 h
A498 renal = test system: A498 renal
NCI-H460 lung = test system: NCI-H460 lung
SN12C renal = test system: SN12C renal
786-0 renal = test system: 786-0 renal
KM12 colon = test system: KM12 colon
DU-145 prostate = test system: DU-145 prostate
HCT-15 colon = test system: HCT-15 colon
SW-620 colon = test system: SW-620 colon
SNB-75 CNS = test system: SNB-75 CNS
UACC-62 melanoma = test system: UACC-62 melanoma
RXF 393 renal = test system: RXF 393 renal
T-47D breast = test system: T-47D breast
ACHN renal = test system: ACHN renal
MDA-MB-231 breast = test system: MDA-MB-231 breast
SF-268 CNS = test system: SF-268 CNS
OVCAR-3 ovarian = test system: OVCAR-3 ovarian
COLO 205 colon = test system: COLO 205 colon
HL-60(TB) leukemia = test system: HL-60(TB) leukemia
NCI/ADR-RES ovarian = test system: NCI/ADR-RES ovarian
NCI-H23 lung = test system: NCI-H23 lung
HCC-2998 colon = test system: HCC-2998 colon
NCI-H522 lung = test system: NCI-H522 lung
CAKI-1 renal = test system: CAKI-1 renal
NCI-H226 lung = test system: NCI-H226 lung
SK-MEL-2 melanoma = test system: SK-MEL-2 melanoma
M14 melanoma = test system: M14 melanoma
SR leukemia = test system: SR leukemia
PC-3 prostate = test system: PC-3 prostate
SK-MEL-28 melanoma = test system: SK-MEL-28 melanoma
MALME-3M melanoma = test system: MALME-3M melanoma
UACC-257 melanoma = test system: UACC-257 melanoma
HT29 colon = test system: HT29 colon
TK-10 renal = test system: TK-10 renal
EKVX NSCLC = test system: EKVX NSCLC
CCRF-CEM leukemia = test system: CCRF-CEM leukemia
MCF7 breast = test system: MCF7 breast
MDA-MB-435 = test system: MDA-MB-435
OVCAR-5 ovarian = test system: OVCAR-5 ovarian
HOP-62 NSCLC = test system: HOP-62 NSCLC
RPMI-8226 leukemia = test system: RPMI-8226 leukemia
SK-OV-3 ovarian = test system: SK-OV-3 ovarian
HS 578T breast = test system: HS 578T breast
SF-295 CNS = test system: SF-295 CNS
MDA-N = test system: MDA-N
OVCAR-4 ovarian = test system: OVCAR-4 ovarian
MOLT-4 leukemia = test system: MOLT-4 leukemia
A549 NSCLC = test system: A549 NSCLC
SNB-19 CNS = test system: SNB-19 CNS
IGROV1 ovarian = test system: IGROV1 ovarian
SF-539 CNS = test system: SF-539 CNS
UO-31 renal = test system: UO-31 renal
HCT-116 colon = test system: HCT-116 colon
OVCAR-8 ovarian = test system: OVCAR-8 ovarian
LOX IMVI melanoma = test system: LOX IMVI melanoma
SK-MEL-5 melanoma = test system: SK-MEL-5 melanoma
K-562 leukemia = test system: K-562 leukemia
BT-549 breast = test system: BT-549 breast
U251 CNS = test system: U251 CNS
HOP-92 NSCLC = test system: HOP-92 NSCLC

Measured: TGI

CSc1c(S(C)=O)c2ccccc2n1C (stereo not given)
not listed: BT-549 breast | U251 CNS | HOP-92 NSCLC
> 100 µM: all other assays above

N#Cc1c2c(c(Nc3cccc(C(F)(F)F)c3)n3c1nc1ccccc13)CCCC2
44.4 µM: TK-10 renal
46.6 µM: OVCAR-5 ovarian
95.3 µM: BT-549 breast
27.9 µM: 786-0 renal
23.7 µM: U251 CNS
51.8 µM: NCI/ADR-RES ovarian
48 µM: SK-OV-3 ovarian
> 100 µM: NCI-H460 lung | KM12 colon | DU-145 prostate | HCT-15 colon | SW-620 colon | T-47D breast | ACHN renal | OVCAR-3 ovarian | COLO 205 colon | UACC-257 melanoma | MDA-MB-435 | RPMI-8226 leukemia | SF-295 CNS | OVCAR-4 ovarian | MOLT-4 leukemia | HCT-116 colon | SK-MEL-5 melanoma
35.8 µM: LOX IMVI melanoma
63.2 µM: NCI-H226 lung
57.3 µM: SNB-75 CNS
56.4 µM: HT29 colon
22.1 µM: NCI-H522 lung
62.4 µM: EKVX NSCLC
43.1 µM: SF-268 CNS
85.7 µM: MALME-3M melanoma
94.9 µM: A498 renal
36.3 µM: HOP-62 NSCLC
22.5 µM: HOP-92 NSCLC
88.8 µM: SN12C renal
58.9 µM: MDA-MB-231 breast
82.4 µM: CAKI-1 renal
86.2 µM: RXF 393 renal
56.7 µM: MDA-N
34.1 µM: OVCAR-8 ovarian
47.5 µM: SK-MEL-28 melanoma
89.2 µM: NCI-H23 lung
31 µM: SF-539 CNS
